Test system: main fungi responsible for beverage and food spoilage (yeast and mould strains)
Experiment: Growth inhibition of yeast and mould strains in 105 g/L sucrose solution (OD after 21 days)
Type: cell-based
Procedure: The antifungal activity of various flavouring ingredients was evaluated against the following yeast strains: Zygosaccharomyces rouxii (DSM70835), Pichia membranaefaciens (DSM 70369), Dekkera Bruxellensis (DSM70726), Saccharomyces cerevisiae (DSM 70869) and Candida krusei (origin: Leatherhead Food Research) and against the following moulds strains: Byssochlamys nivea, Fusarium solani, Aspergillus fumigatis, Byssochlamys fulva, Aspergillus niger, Talaromyces Harzanium, Penicillium crustosum, Penicillium digitatum, Neosartorya fischeri, Penicillium roquerforti, Fusarium oxysporum.
A 105 g/L solution of sucrose in water at pH 3±0.2 was prepared. Another sucrose solution at the same concentration at pH 5±0.2 was also prepared. The sucrose solutions were autoclaved at 121° C. for 15 minutes and the pH was re-checked to ensure it remained within the range.
Test samples were then prepared in microtiter plates. An amount of 100 μL of sucrose solution prepared above, were mixed with an inoculum of 20 μL of one fungal strain, so as to achieve a microbial level comprised between 10^2 and 10^3 cfu/mL.
The flavouring ingredient or composition was then added to the microtiter plate. Dilutions were prepared in the microtiter plate for each mixture of sucrose solution and inoculum to afford final concentrations of 2000 ppm, 1000 ppm, 500 ppm, 250 ppm and 125 ppm of the ingredient or composition to be tested. One well for each mixture of sucrose solution and inoculum was kept free of flavouring ingredient or composition, to serve as a control.
The microtiter plates were then stored in a standard 25° C. incubator under aerobic conditions.
The optical density (OD) of each sample was measured after 21 days of incubation using a Bio-Tek Synergy™ HT Multi-Mode Microplate Reader (from Labtech International, UK). The wavelength was set to 380 nm for yeast strains and to 500 nm for mould strains. All tests were done in triplicate to ensure statistical relevance of the results.
The following tables indicate the OD measurements obtained when each flavouring ingredient or composition was used to inhibit growth of yeast and mould strains involved at concentration ranging between 0 and 2000 ppm. Measurements corresponding to efficient growth inhibition are indicated by grey cells in the tables below. Results were considered as evidence of efficient growth inhibition when the OD of the growth medium was below 0.2. OD measurements below 0.2 were not considered as sufficient evidence of the antifungal activity of a given flavouring ingredient or composition at a given concentration if OD measurements obtained with a higher concentration of such flavouring ingredient or composition were above 0.2.

[1] = sucrose solution at pH 3, concentrations of 1000 ppm or less, OD below 0.2 after 21 days at 25° C., 16 strains tested
[2] = sucrose solution at pH 5, concentrations of 1000 ppm or less, OD below 0.2 after 21 days at 25° C., 16 strains tested

Compound	number of the main fungi responsible for beverage and food spoilage against which there is a strong antifungal effect [1]	number of the main fungi responsible for beverage and food spoilage against which there is a strong antifungal effect [2]	number of the main fungi responsible for beverage and food spoilage against which there is a strong antifungal effect (pH 3)	number of the main fungi responsible for beverage and food spoilage against which there is a strong antifungal effect (pH 5)
CCCCC(C)C(=O)O (stereo not drawn) [2-methylhexanoic acid]	15	16	–	–
CCCCCc1ccco1 [2-pentylfuran]	3	2	–	–
CC(C)CC=C(C=O)c1ccccc1 [5-methyl-2-phenyl-2-hexenal]	–	–	9	5
CC(=O)C=CCCC(C)C [7-methyl-3-octen-2-one]	6	11	–	–
C[C@@H]1CC[C@H]2[C@H](C)C(=O)O[C@@H]2C1 [(+)-(3S,3AS,6R,7AR)-perhydro-3,6-dimethyl-benzo[B]furan-2-one]	3	2	–	–
Cc1ccc(C(C)C)cc1O [carvacrol]	15	14	–	–
CCCc1ccc(O)c(OC)c1 [dihydro eugenol]	15	15	–	–
CC(C)=CCCC(C)=CCCC(C)=CCO [farnesol]	2	–	–	–
COc1cc(C)cc(O)c1 [orcinyle, 3-methoxy-5-methylphenol]	2	–	–	–
O=C(O)c1ccccc1O [salicylic acid]	12	14	–	–
CC1=CCC(=C(C)C)CC1 [terpinolene]	15	7	–	–
Cc1ccc(C(C)C)c(O)c1 [thymol]	4	–	–	–
